Results: patent US8334002B2, “Cinnamaldehyde—allicin compositions and their method of use” (Valent BioSciences Corporation, priority 2008, dated 2012)

Tests used:
[1] = tested on: Root Knot Nematodes (Meloidogyne incognita); test: Greenhouse pot test, root galling after inoculation with second stage juveniles; type: in vivo; settings: 300 ppm total a.i.
From the text: Procedure for Greenhouse pot Tests:
2″×2″ plastic pots are filled with 140 to 150 g of plant growth medium that is made up of non-pasteurized sand and soil at 2:1 ratio. Three cucumber seeds (variety Straight Eight; in the case of tomatoes, variety Rutgers) are planted at uniform depth and watered. Upon emergence, two uniform seedlings are allowed to grow in each pot by removing the third seedling. Seedlings are selected when the first true leaf is emerged, generally 5 to 7 days after planting. Each pot is treated with test material diluted in 25 mL of water that is just sufficient to wet the soil but not drip. Except for untreated control, all test pots are inoculated with about 800 second stage juveniles of Root Knot Nematodes (Meloidogyne incognita). Plants are watered as needed. Twelve to fourteen days after the pots are inoculated, the plants are carefully removed from the pots, the roots are gently washed free of soil and placed on paper towels, and data on fresh weight of shoots, roots, number of galls/treatment and/or per gram of root are taken.

nematodes = settings: at concentrations of 300 ppm; cited from earlier work
[2] = cucumber, preferred formulations of Table 2

| SMILES | % gall reduction in relation to M.i Control [1, 2] [%] | Average gall rating (0-9) [1, 2] | % gall reduction in relation to M.i Control ([1]; prototype formulations of Table 1) [%] | Average gall rating (0-9) ([1]; prototype formulations of Table 1, 0 = no galls, 9 = heavy galling) | nematicidal activity (nematodes) |
| --- | --- | --- | --- | --- | --- |
| C=CCS[S+]([O-])CC=C (stereo not shown) [Allicin, allicin] | 41.7 | 5.25 | 72.7 | 2.25 | – |
| O=CC=Cc1ccccc1 [Cinnamaldehyde, cinnamaldehyde] | 19.4 | 7.25 | – | – | only marginal |
